The values below come from patent EP2860184A1, “Dihydrogenphosphate salt of Tenofovir disoproxil” (Zentiva, k.s., priority 2013, dated 2015).

Data set [1] can be described thus: Chemical stability stress test (HPLC purity before and after). Format: physicochemical. The following applies: for Starting HPLC purity (%): before the stress test; for HPLC purity (%) after the stress test: stress conditions: 80°C for 46 hours, 2760 min. As for the experimental part: Physico-chemical properties (stability and solubility) of Tenofovir disoproxil dihydrogenphosphate were compared with other known salts (Tenofovir disoproxil fumarate, citrate, succinate, L-tartrate, D-tartrate, maleate) prepared according to published procedures. Table 2: Chemical stability of Tenofovir disoproxil and its salts (stress conditions: 80°C for 46 hours)
Column: Zorbax Eclipse XDB C18 RRHD, 100 x 3.0 mm (I.D.) x 1.8 um (Agilent), Run Time: 11.5 min., Injection Volume: 2 µl, Mobile Phase: MFA: 10mM K2HPO4 pH=7,0; MFB: ACN; MFA: 90-40-40-90; t: 0-7-9-9,5; F: 0,5 ml/min; 35°C

Data set [2] is described as follows: API solid form change during drug product manufacture (wet granulation). The class given is physicochemical. The text has this:
Moreover, we observed partial the conversion (about 30 %) of Tenofovir disoproxil fumarate (Formula II) in Tenofovir disoproxil hemifumarate (Formula III) during our formulation trials using wet granulation process.
Diffraction patterns were obtained with laboratory X'PERT PRO MPD PANalytical diffractometer, radiation used CuKα (λ = 1.542/Å). Generator settings: excitation voltage 45 kV, anodic current 40 mA. Scan description: scan type - gonio, measurement range 2 - 40º 2θ, step size 0.01º 2θ, step time: 0.5 s. Samples were measured as received on Si plate (zero background holder). Incident beam optics: programmable divergence slits (irradiated length 10 mm), 10 mm mask, 1/4º anti-scatter fixed slit, 0.02 rad Soller slits. Diffracted beam optics: X'Celerator detector, scanning mode, active length 2.122º, 0.02 rad Soller slits, anti-scatter slit 5.0 mm, Ni filter.
Tenofovir disoproxil dihydrogenphosphate (300 g), lactose monohydrate (206 g), microcrystalline cellulose (Avicel pH 101; 50 g), croscarmellose sodium (30 g), polyvinylpyrolidone K-25 (20 g) and magnesium stearate (10 g) were sieved. The mixture was loaded to high shear granulator. Purified water (150 ml) was sprayed on the blend in short time intervals and the mixture was kneaded to granules. The wet granules were dried in an oven at 60°C. The dried granules were milled and sieved. […]

Data set [3] can be described thus: Apparent solubility and dissolution rate of the salts (Figure 3). Format: physicochemical. The following applies: compared with other salts, including Tenofovir disoproxil fumarate. The text has this: The active substance solubility is important for bioavailability of the drug.
• Figure 1: DSC of Tenofovir disoproxil dihydrogenphosphate • Figure 2: 1H NMR of Tenofovir disoproxil dihydrogenphosphate • Figure 3: The apparent solubility and dissolution rate of Tenofovir disoproxil salts • Figure 4: Typical HPLC chromatogram of Tenofovir disoproxil dihydrogenphosphate prepared from Tenofovir disoproxil base • Figure 5: SEM images of Tenofovir disoproxil dihydrogenphosphate prepared from Tenofovir disoproxil • Figure 6: Typical HPLC chromatogram of Tenofovir disoproxil dihydrogenphosphate prepared from Tenofovir disoproxil fumarate • Figure 7: SEM images of Tenofovir disoproxil dihydrogenphosphate prepared from Tenofovir disoproxil fumarate

For data set [4] the following is noted: in the presence of increased humidity and/or temperature; cited from earlier work.

Where a name gives a salt, the structure may show the parent alone.

Turning to `CC(C)OC(=O)OCOP(=O)(CO[C@H](C)Cn1cnc2c(N)ncnc21)OCOC(=O)OC(C)C` [Tenofovir disoproxil (free base), 9-[-2-(R)-[[bis[[(isopropoxycarbonyl)oxy]methoxy]phosphinoyl]methoxy]propyl] adenine], in data set [1], the “Starting HPLC purity (%)” value was found to be 95.66% and the “HPLC purity (%) after the stress test” value is listed as 6.13%.
As for `CC(C)OC(=O)OCOP(=O)(CO[C@H](C)Cn1cnc2c(N)ncnc21)OCOC(=O)OC(C)C` [Tenofovir disoproxil D-tartrate], in data set [1], the “Starting HPLC purity (%)” value came out at 99.66% and the “HPLC purity (%) after the stress test” value was found to be 25.51%.
On the same counts, the results for `CC(C)OC(=O)OCOP(=O)(CO[C@H](C)Cn1cnc2c(N)ncnc21)OCOC(=O)OC(C)C` [Tenofovir disoproxil L-tartrate] are 98.10% and 21.12%.
For the compound `CC(C)OC(=O)OCOP(=O)(CO[C@H](C)Cn1cnc2c(N)ncnc21)OCOC(=O)OC(C)C` [Tenofovir disoproxil dihydrogenphosphate], the “changes in API solid form” value in data set [2] (manufacturing of a drug product) was “no changes in API solid form”. Besides, in data set [3], the Solubility entry is listed as “superior to other salts”. In data set [1], the “Starting HPLC purity (%)” value was determined as 99.66% and the “HPLC purity (%) after the stress test” value was found to be 97.69%. The “Chemical stability compared with other salts” value in data set [1] (compared with fumarate, citrate, succinate, L-tartrate, D-tartrate, maleate, 80°C for 46 hours) is listed as “the most stable salt of Tenofovir disoproxil”.
In the case of `CC(C)OC(=O)OCOP(=O)(CO[C@H](C)Cn1cnc2c(N)ncnc21)OCOC(=O)OC(C)C` [Tenofovir disoproxil fumarate], in data set [2] (formulation trials using wet granulation process), the “conversion in Tenofovir disoproxil hemifumarate” value is “about 30%”. In data set [1], the “Starting HPLC purity (%)” value was determined as 99.81% and the “HPLC purity (%) after the stress test” value is on record as 4.08%. Moreover, the solid form conversion entry in data set [4] was “converts into Tenofovir disoproxil hemifumarate”.
As to `CC(C)OC(=O)OCOP(=O)(CO[C@H](C)Cn1cnc2c(N)ncnc21)OCOC(=O)OC(C)C` [Tenofovir disoproxil succinate], in data set [1], the “Starting HPLC purity (%)” value is 99.04% and the “HPLC purity (%) after the stress test” value is recorded as 54.16%.
